Measured values from patent US20100061982A1, “3-SUBSTITUTED-1H-INDOLE, 3-SUBSTITUTED-1H-PYRROLO[2,3-B]PYRIDINE AND 3-SUBSTITUTED-1H-PYRROLO[3,2-B]PYRIDINE COMPOUNDS, THEIR USE AS MTOR KINASE AND PI3 KINASE INHIBITORS, AND THEIR SYNTHESES” (priority 2008, published 2010).
Converted amounts (≈) assume the structure as drawn. Where two headings read alike, the source gives them in different places.

Columns and labels:
[1] = PAMPA permeability pH 7.4
mTOR = mTOR (Homo sapiens, UniProt P42345); assay: mTOR Enzyme Assay (DELFIA, purified enzyme); format: biochemical; parameters: FLAG; conditions: read-out: mTOR Mean IC50
[2] = Plasma Stability (37° C.), nude mouse
[3] = Microsome Stability (15 min), rat; format: in vitro ADME; conditions: microsomes
[4] = Plasma Stability (37° C.), rat
[5] = Buffer Stability (37° C.)
[6] = Microsome Stability (15 min), human; format: in vitro ADME; conditions: microsomes
[7] = Microsome Stability (15 min), nude mouse; format: in vitro ADME; conditions: microsomes
[8] = In vivo blood/plasma and tumor levels of prodrug and metabolites after 50 mg, kg po; conditions: for plasma prodrug, Dosed @ 50 mg, kg po (precursor phenolic compound dosed) / plasma prodrug concentration / tumor prodrug concentration: 50 mg
[9] = CACO2 permeability a-b/b-a; format: in vitro ADME; conditions: human, Caco-2; for Papp A→B: a − b (first value of cell), read-out: CACO2 Pe a − b; for Papp B→A: b − a (second value of cell), read-out: CACO2 Pe b − a
Solubility pH 7.4 = conditions: pH 7.4, aqueous buffer
PI3K alpha = PI3K alpha (Homo sapiens, UniProt P42336); assay: PI3K-alpha Fluorescence Polarization Assay; format: biochemical
Sequence of PI3K alpha (P42336 whole entry, species assumed): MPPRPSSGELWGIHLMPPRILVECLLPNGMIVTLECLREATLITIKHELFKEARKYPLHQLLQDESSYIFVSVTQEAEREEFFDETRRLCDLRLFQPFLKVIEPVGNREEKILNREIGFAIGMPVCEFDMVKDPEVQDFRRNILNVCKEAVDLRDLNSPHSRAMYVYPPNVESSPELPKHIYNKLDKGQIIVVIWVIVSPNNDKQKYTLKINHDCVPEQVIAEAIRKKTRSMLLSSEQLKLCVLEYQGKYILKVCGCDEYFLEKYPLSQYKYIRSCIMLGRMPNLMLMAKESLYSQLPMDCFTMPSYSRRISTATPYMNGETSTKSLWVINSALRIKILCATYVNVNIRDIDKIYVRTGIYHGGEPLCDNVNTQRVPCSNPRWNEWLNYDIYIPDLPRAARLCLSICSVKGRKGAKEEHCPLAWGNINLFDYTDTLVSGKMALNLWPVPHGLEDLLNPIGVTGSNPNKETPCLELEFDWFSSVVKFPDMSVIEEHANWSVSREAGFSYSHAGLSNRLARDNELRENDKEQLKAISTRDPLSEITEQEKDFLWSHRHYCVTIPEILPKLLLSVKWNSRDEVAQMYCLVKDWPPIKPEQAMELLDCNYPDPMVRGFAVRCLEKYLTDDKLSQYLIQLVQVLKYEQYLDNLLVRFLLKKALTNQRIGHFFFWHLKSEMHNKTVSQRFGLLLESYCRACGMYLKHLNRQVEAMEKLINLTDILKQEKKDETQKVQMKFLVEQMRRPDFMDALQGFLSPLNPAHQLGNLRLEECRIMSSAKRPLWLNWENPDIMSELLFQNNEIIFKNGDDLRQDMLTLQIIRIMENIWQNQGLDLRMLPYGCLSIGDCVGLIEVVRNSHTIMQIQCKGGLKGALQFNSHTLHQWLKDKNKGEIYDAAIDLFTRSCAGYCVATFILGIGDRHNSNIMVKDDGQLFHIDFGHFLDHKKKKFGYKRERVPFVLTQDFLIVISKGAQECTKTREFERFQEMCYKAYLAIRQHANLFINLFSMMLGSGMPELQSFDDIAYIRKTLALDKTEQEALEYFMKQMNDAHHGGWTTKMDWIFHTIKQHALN
Sequence of PI3K alpha (P27986 whole entry partner, species assumed): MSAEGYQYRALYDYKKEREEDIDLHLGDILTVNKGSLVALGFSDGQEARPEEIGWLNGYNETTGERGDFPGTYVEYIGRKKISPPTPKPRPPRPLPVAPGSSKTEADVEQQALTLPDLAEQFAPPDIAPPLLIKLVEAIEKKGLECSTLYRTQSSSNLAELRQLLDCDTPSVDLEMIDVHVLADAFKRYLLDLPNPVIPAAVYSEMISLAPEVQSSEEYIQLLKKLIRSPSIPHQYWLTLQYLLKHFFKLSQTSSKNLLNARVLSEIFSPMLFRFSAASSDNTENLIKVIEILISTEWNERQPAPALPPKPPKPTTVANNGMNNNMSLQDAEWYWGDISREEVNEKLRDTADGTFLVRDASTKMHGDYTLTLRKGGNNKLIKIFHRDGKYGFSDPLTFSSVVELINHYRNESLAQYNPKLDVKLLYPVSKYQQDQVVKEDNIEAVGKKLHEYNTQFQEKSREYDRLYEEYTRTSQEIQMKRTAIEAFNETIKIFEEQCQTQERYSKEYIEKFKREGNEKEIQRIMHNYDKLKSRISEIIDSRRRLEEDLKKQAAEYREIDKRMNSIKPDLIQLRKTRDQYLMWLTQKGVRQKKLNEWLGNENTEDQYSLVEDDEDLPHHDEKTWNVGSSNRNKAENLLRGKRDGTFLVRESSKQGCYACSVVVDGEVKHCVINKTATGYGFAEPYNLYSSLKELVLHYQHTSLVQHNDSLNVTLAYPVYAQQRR

[10] = Phase I (NADPH), read-out: Microsome Stability (15 min) T ½ Phase I rat
[11] = Phase I (NADPH), read-out: Microsome Stability (15 min) T ½ Phase I human
[12] = value after the slash in Table VIc, read-out: Microsome Stability (15 min) T ½ human, second value of cell
[13] = nude, mouse, Phase I (NADPH), read-out: Microsome Stability (15 min) T ½ Phase I nude mouse
[14] = Phase I (NADPH), read-out: Microsome Stability (15 min) T ½ Phase I nude mouse

Compound | PAMPA Pe [1] | Plasma Stability (37° C.) % Remaining (3-3.5 hours) nude mouse [2] | half-life [3, 10] | Plasma Stability (37° C.) % Remaining (3-3.5 hours) rat [4] | Buffer Stability (37° C.) % Remaining (at 16-23 hours) SGF [5] | Buffer Stability (37° C.) % Remaining (at 16-23 hours) SIF [5] | Buffer Stability (37° C.) % Remaining (at 16-23 hours) pH 1 [5] | Buffer Stability (37° C.) % Remaining (at 16-23 hours) pH 4.5 [5] | Buffer Stability (37° C.) % Remaining (at 16-23 hours) pH 6.6 [5] | Buffer Stability (37° C.) % Remaining (at 16-23 hours) pH 7.4 [5] | Buffer Stability (37° C.) % Remaining (at 16-23 hours) pH 9 [5] | half-life [6, 11] | Papp A→B [9] | Papp B→A [9] | solubility (Solubility pH 7.4) | IC50 (PI3K alpha) | half-life [7, 14] | plasma prodrug concentration ([8]; 0.5 h) | plasma prodrug concentration ([8]; 2 h) | also measured
COc1ccc2c(c1)c(/C=C1\Oc3cc(OC(=O)N(C)c4ccccc4)ccc3C1=O)c(C)n2CCN1CCN(C)CC1 [Example 46, (2Z)-2-({5-methoxy-2-methyl-1-[2-(4-methylpiperazin-1-yl)ethyl]-1H-indol-3-yl}methylene)-3-oxo-2,3-dihydro-1-benzofuran-6-yl methyl(phenyl)carbamate] | Undetected | 19% | 10 min | 22% | 98% | 100% | 101% | 99% | 98% | 97% | 96% |  |  |  |  |  |  |  |  | IC50 (mTOR): > 4 µM
COc1ccc2c(c1)c(/C=C1\Oc3cc(O)cc(O)c3C1=O)cn2CCCN(C)C [(2Z)-2-({1-[3-(dimethylamino)propyl]-5-methoxy-1H-indol-3-yl}methylene)-4,6-dihydroxy-1-benzofuran-3(2H)-one] | 0 10e−6 cm/s | 78% | 6 min | 77% | 95% | 57% | 99% | 93% | 83% | 82% | 94% | > 30 min | 3.9 ×10⁻⁶ cm/s | 27 ×10⁻⁶ cm/s | 33 µg/mL (≈ 80.8 µM) |  |  |  |  | half-life [6, 12]: 28 min; half-life [7, 13]: 15 min; plasma prodrug, Dosed @ 50 mg, kg po (precursor phenolic compound dosed) ([8]; 1 h conc.): 23; plasma prodrug, Dosed @ 50 mg, kg po (precursor phenolic compound dosed) ([8]; 4 h conc.): 7
COc1ccc2c(c1)c(/C=C1\Oc3cc(OC(=O)N(C(C)C)C(C)C)ccc3C1=O)c(C)n2CCN1CCN(C)CC1 [Example 47, (2Z)-2-({5-methoxy-2-methyl-1-[2-(4-methylpiperazin-1-yl)ethyl]-1H-indol-3-yl}methylene)-3-oxo-2,3-dihydro-1-benzofuran-6-yl diisopropylcarbamate] | Undetected | 82% | 16 min | 92% | 98% | 94% | 97% | 100% | 95% | 100% | 96% |  |  |  |  | > 10 µM |  |  |  | IC50 (mTOR): > 4 µM
COc1ccc2c(c1)c(/C=C1\Oc3cc(OC(=O)N(C)C)cc(OC(=O)N(C)C)c3C1=O)c(C)n2CCN1CCN(C)CC1 [Example 12, (2Z)-2-({5-methoxy-2-methyl-1-[2-(4-methylpiperazin-1-yl)ethyl]-1H-indol-3-yl}methylene)-3-oxo-2,3-dihydro-1-benzofuran-4,6-diyl bis(dimethylcarbamate)] | 0.78 10e−6 cm/s | 32% | 23 min | 71% | 100% | 100% | 100% | 100% | 100% | 100% | 90% | 9 min | 1.98 ×10⁻⁶ cm/s | 3.36 ×10⁻⁶ cm/s | 40 µg/mL (≈ 66 µM) | > 10 µM | 23 min | 2444, ng, ml | 3871, ng, ml | tumor prodrug concentration ([8]; 0.5 h): 344, ng, ml; tumor prodrug concentration ([8]; 2 h): 1278, ng, ml; tumor prodrug concentration ([8]; 6 h): 629 ng, ml; plasma prodrug concentration ([8]; 6 h (third value)): 2027, ng, ml; plasma prodrug concentration ([8]; 10 h): 443 ng, ml; tumor prodrug concentration ([8]; 10 h): 69 ng, ml; plasma prodrug concentration ([8]; 24 h): 1 ng, ml; tumor prodrug concentration ([8]; 24 h): bql; tumor precursor phenolic cmpd concentration (metabolite) ([8]; prodrug 50 mg, 6 h (third value)): bql; blood 4-OH, 6-OR mono prodrug concentration (metabolite) ([8]; prodrug 50 mg, 24 h): bql; blood 6-OH, 4-OR mono prodrug concentration (metabolite) ([8]; prodrug 50 mg, 24 h): bql; tumor 6-OH, 4-OR mono prodrug concentration (metabolite) ([8]; prodrug 50 mg, 24 h): bql
COc1ccc2c(c1)c(/C=C1\Oc3cc(OC(=O)N(C)C)cc(OC(=O)N(C)C)c3C1=O)cn2CCCN(C)C [Example 8, (2Z)-2-({1-[3-(dimethylamino)propyl]-5-methoxy-1H-indol-3-yl}methylene)-3-oxo-2,3-dihydro-1-benzofuran-4,6-diyl bis(dimethylcarbamate)] | 4.53 10e−6 cm/s | 7% | > 30 min | 50% | 100% | 100% | 100% | 100% | 100% | 100% | 91% | 15 min | 4.82 ×10⁻⁶ cm/s | 7.22 ×10⁻⁶ cm/s | 28 µg/mL (≈ 50.9 µM) | > 10 µM | 23 min | 3122, ng, ml | 3876, ng, ml | tumor prodrug concentration ([8]; 0.5 h): 2170, ng, ml; tumor prodrug concentration ([8]; 2 h): 4820, ng, ml; tumor prodrug concentration ([8]; 6 h): 1482, ng, ml; plasma prodrug concentration ([8]; 6 h (third value)): 2170, ng, ml; plasma prodrug concentration ([8]; 10 h): 497 ng, ml; tumor prodrug concentration ([8]; 10 h): 556 ng, ml; plasma prodrug concentration ([8]; 24 h): 3 ng, ml; tumor prodrug concentration ([8]; 24 h): bql; blood 4-OH, 6-OR mono prodrug concentration (metabolite) ([8]; prodrug 50 mg, 24 h): bql; blood 6-OH, 4-OR mono prodrug concentration (metabolite) ([8]; prodrug 50 mg, 24 h): bql; tumor 4-OH, 6-OR mono prodrug concentration (metabolite) ([8]; prodrug 50 mg, 24 h): bql; tumor 6-OH, 4-OR mono prodrug concentration (metabolite) ([8]; prodrug 50 mg, 24 h): bql; blood precursor phenolic cpd concentration (metabolite) ([8]; prodrug 50 mg, all time points (0.5, 2, 6, 10, 24 h)): bql at all
COc1ccc2c(c1)c(/C=C1\Oc3cc(OC(=O)N(C(C)C)C(C)C)cc(OC(=O)N(C(C)C)C(C)C)c3C1=O)cn2CCCN(C)C [Example 4, (2Z)-2-({1-[3-(dimethylamino)propyl]-5-methoxy-1H-indol-3-yl}methylene)-3-oxo-2,3-dihydro-1-benzofuran-4,6-diyl bis(diisopropylcarbamate)] | 0 10e−6 cm/s | 64% | > 30 min | 65% | 100% | 100% | 100% | 100% |  | 100% | 100% | 6 min | 0.16 ×10⁻⁶ cm/s | 0.06 ×10⁻⁶ cm/s |  | > 10 µM | 21 min | 411 ng, ml | 435 ng, ml | 
COc1ccc2[nH]c(-c3ccccc3)c(/C=C3\Oc4cc(O)ccc4C3=O)c2c1 [(2Z)-6-hydroxy-2-[(5-methoxy-2-phenyl-1H-indol-3-yl)methylene]-1-benzofuran-3(2H)-one] | 0.18 10e−6 cm/s | 83% | 18 min | 111% | 93% | 97% | 97% | 98% | 98% | 98% | 99% | 15 min | 0.03 ×10⁻⁶ cm/s | 0.11 ×10⁻⁶ cm/s |  |  |  |  |  | half-life ([3]; value after the slash in Table VIc, read-out: Microsome Stability (15 min) T ½ rat, second value of cell): 4 min; half-life [6, 12]: 3 min; half-life [7, 13]: 19 min; half-life ([7]; nude, mouse, value after the slash in Table VIc, read-out: Microsome Stability (15 min) T ½ nude mouse, second value of cell): 4 min; plasma prodrug, Dosed @ 50 mg, kg po (precursor phenolic compound dosed) ([8]; first value, time not stated in Table VIIb): bql, bql; plasma prodrug, Dosed @ 50 mg, kg po (precursor phenolic compound dosed) ([8]; second value, time not stated in Table VIIb): bql, bql; IC50 (PI3K alpha; read-out: PI3K alpha Mean IC50): 0.0013 µM
